Experimental data: patent publication US20210045385A1, “PYRIDAZINONE-SUBSTITUTED KETOXIMES AS HERBICIDES” (FMC Corporation, priority 2018, published 2021)

Tests used:
Type in all cases: in vivo
[1] = test system: Italian ryegrass (Lolium multiflorum); test: Test A preemergence, visual plant response rating; settings: for Ryegrass, Italian plant response rating: 125 g ai/ha, preemergence, 0 to 100 scale, 0 no effect, 100 complete control; for Ryegrass, Italian plant response rating (0 to 100 scale): 500 g ai/ha Preemergence, approx. 10 days
Method in brief: (§1)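 Compared with untreated controls, treated plants received a visual injury score on a 0–100 scale around 10 days after application. The compound, in a non-phytotoxic solvent with surfactant, was given as a preemergence soil spray or postemergence at the one- to two-leaf stage.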

[2] = test system: barnyardgrass (Echinochloa crus-galli); test: Test A preemergence, visual plant response rating; settings: for Barnyardgrass plant response rating: 125 g ai/ha, preemergence, 0 to 100 scale, 0 no effect, 100 complete control; for Barnyardgrass plant response rating (0 to 100 scale): 500 g ai/ha Preemergence, approx. 10 days
Method in brief: as §1

[3] = test system: foxtail, giant (giant foxtail, Setaria faberii); test: Test A preemergence, visual plant response rating; settings: for Foxtail, Giant plant response rating: 125 g ai/ha, preemergence, 0 to 100 scale, 0 no effect, 100 complete control; for Foxtail, Giant plant response rating (0 to 100 scale): 500 g ai/ha Preemergence, approx. 10 days
Method in brief: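 Ratings use a 0–100 visual scale (100 = complete control) against untreated controls, scored about 10 days after greenhouse treatment. Test chemicals were formulated in surfactant-containing non-phytotoxic solvent and applied either as soil spray after planting (preemergence) or onto one- to two-leaf, 2–10 cm plants (postemergence).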

kochia (Kochia scoparia) [4] = test: Test A preemergence, visual plant response rating; settings: for Kochia plant response rating: 125 g ai/ha, preemergence, 0 to 100 scale, 0 no effect, 100 complete control; for Kochia plant response rating (0 to 100 scale): 500 g ai/ha Preemergence, approx. 10 days
Method in brief: as §1

[5] = test system: pigweed (Amaranthus retroflexus); test: Test A preemergence, visual plant response rating; settings: for Pigweed plant response rating: 125 g ai/ha, preemergence, 0 to 100 scale, 0 no effect, 100 complete control; for Pigweed plant response rating (0 to 100 scale): 500 g ai/ha Preemergence, approx. 10 days
Method in brief: as §1

[6] = test system: ragweed (common ragweed, Ambrosia elatior); test: Test A preemergence, visual plant response rating; settings: for Ragweed plant response rating: 125 g ai/ha, preemergence, 0 to 100 scale, 0 no effect, 100 complete control; for Ragweed plant response rating (0 to 100 scale): 500 g ai/ha Preemergence, approx. 10 days
Method in brief: as §1

[7] = test system: Italian ryegrass (Lolium multiflorum); test: Test A postemergence, visual plant response rating; settings: for Ryegrass, Italian plant response rating (0 to 100 scale): 500 g ai/ha, postemergence, 0 is no effect, 100 is complete control; for Ryegrass, Italian plant response rating: Postemergence, 125 g ai/ha, 0 to 100 scale (0 no effect, 100 complete control)
Method in brief: as §1

[8] = test system: barnyardgrass (Echinochloa crus-galli); test: Test A postemergence, visual plant response rating; settings: for Barnyardgrass plant response rating (0 to 100 scale): 500 g ai/ha, postemergence, 0 is no effect, 100 is complete control; for Barnyardgrass plant response rating: Postemergence, 125 g ai/ha, 0 to 100 scale (0 no effect, 100 complete control)
Method in brief: as §1

[9] = test system: blackgrass (Alopecurus myosuroides); test: Test A postemergence, visual plant response rating; settings: for Blackgrass plant response rating (0 to 100 scale): 500 g ai/ha, postemergence, 0 is no effect, 100 is complete control; for Blackgrass plant response rating: Postemergence, 125 g ai/ha, 0 to 100 scale (0 no effect, 100 complete control)
Method in brief: as §1

corn (Zea mays) = test: Test A postemergence, visual plant response rating; settings: for Corn plant response rating (0 to 100 scale): 500 g ai/ha, postemergence, 0 is no effect, 100 is complete control; for Corn plant response rating: Postemergence, 125 g ai/ha, 0 to 100 scale (0 no effect, 100 complete control)
Method in brief: as §1

[10] = test system: foxtail, giant (giant foxtail, Setaria faberii); test: Test A postemergence, visual plant response rating; settings: for Foxtail, Giant plant response rating (0 to 100 scale): 500 g ai/ha, postemergence, 0 is no effect, 100 is complete control; for Foxtail, Giant plant response rating: Postemergence, 125 g ai/ha, 0 to 100 scale (0 no effect, 100 complete control)
Method in brief: as §1

[11] = test system: galium (catchweed bedstraw, Galium aparine); test: Test A postemergence, visual plant response rating; settings: for Galium plant response rating (0 to 100 scale): 500 g ai/ha, postemergence, 0 is no effect, 100 is complete control; for Galium plant response rating: Postemergence, 125 g ai/ha, 0 to 100 scale (0 no effect, 100 complete control)
Method in brief: as §1

kochia (Kochia scoparia) [12] = test: Test A postemergence, visual plant response rating; settings: for Kochia plant response rating (0 to 100 scale): 500 g ai/ha, postemergence, 0 is no effect, 100 is complete control; for Kochia plant response rating: Postemergence, 125 g ai/ha, 0 to 100 scale (0 no effect, 100 complete control)
Method in brief: as §1

[13] = test system: pigweed (Amaranthus retroflexus); test: Test A postemergence, visual plant response rating; settings: for Pigweed plant response rating (0 to 100 scale): 500 g ai/ha, postemergence, 0 is no effect, 100 is complete control; for Pigweed plant response rating: Postemergence, 125 g ai/ha, 0 to 100 scale (0 no effect, 100 complete control)
Method in brief: as §1

[14] = test system: ragweed (common ragweed, Ambrosia elatior); test: Test A postemergence, visual plant response rating; settings: for Ragweed plant response rating (0 to 100 scale): 500 g ai/ha, postemergence, 0 is no effect, 100 is complete control; for Ragweed plant response rating: Postemergence, 125 g ai/ha, 0 to 100 scale (0 no effect, 100 complete control)
Method in brief: as §1

[15] = test system: wheat (Triticum aestivum); test: Test A postemergence, visual plant response rating; settings: for Wheat plant response rating (0 to 100 scale): 500 g ai/ha, postemergence, 0 is no effect, 100 is complete control; for Wheat plant response rating: Postemergence, 125 g ai/ha, 0 to 100 scale (0 no effect, 100 complete control)
Method in brief: as §1

[16] = test system: barnyardgrass (Echinochloa crus-galli); test: Test B flooded paddy test, visual plant response rating; settings: 250 g ai/ha, Flood, applied to paddy water, 2-leaf stage, evaluated after 13 to 15 days
Method in brief: (§2)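 At the two-leaf stage, seedlings received compound applied to paddy water flooded 3 cm above soil, a level sustained until assessment. Greenhouse incubation lasted 13 to 15 days before visual comparison with control plants.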

[17] = test system: ducksalad (Heteranhera limosa); test: as above; settings: 250 g ai/ha, Flood, applied to paddy water, 2-leaf stage, evaluated after 13 to 15 days
Method in brief: as §2

rice (Oryza sativa) = test: as above; settings: 250 g ai/ha, Flood, applied to paddy water, 2-leaf stage, evaluated after 13 to 15 days
Method in brief: as §2

[18] = test system: sedge, umbrella (small-flower umbrella sedge, Cyperus difformis); test: as above; settings: 250 g ai/ha, Flood, applied to paddy water, 2-leaf stage, evaluated after 13 to 15 days
Method in brief: as §2

Q: For CON=C(c1cc(Cl)ccc1C(F)(F)F)c1c(O)c(C)nn(C)c1=O [Compound 97], which “Ryegrass, Italian plant response rating” value [1] is on record?
A: 80

Q: And the “Ryegrass, Italian plant response rating (0 to 100 scale)” value (shortened to “Ryegrass … (0 to 100 scale)”) [1]?
A: 100

Q: What about the “Barnyardgrass plant response rating” value [2] of the same molecule?
A: 70

Q: What about the “Barnyardgrass plant response rating (0 to 100 scale)” value [2] of the same molecule?
A: 90

Q: What about the “Foxtail, Giant plant response rating” value [3] of the same molecule?
A: 80

Q: What about the “Foxtail, Giant plant response rating (0 to 100 scale)” value (“Foxtail … (0 to 100 scale)” for short) [3] of the same molecule?
A: 90

Q: And the “Kochia plant response rating” value (kochia (Kochia scoparia) [4])?
A: 20

Q: And the “Kochia plant response rating (0 to 100 scale)” value (kochia (Kochia scoparia) [4])?
A: 50

Q: What about the “Pigweed plant response rating” value [5] of the same molecule?
A: 40

Q: What about the “Pigweed plant response rating (0 to 100 scale)” value [5] of the same molecule?
A: 90

Q: What about the “Ragweed plant response rating” value [6] of the same molecule?
A: 60

Q: What about the “Ragweed plant response rating (0 to 100 scale)” value [6] of the same molecule?
A: 100

Q: What about the “Ryegrass … (0 to 100 scale)” value [7] of the same molecule?
A: 100

Q: What about the “Ryegrass, Italian plant response rating” value [7] of the same molecule?
A: 90

Q: What about the “Barnyardgrass plant response rating (0 to 100 scale)” value [8] of the same molecule?
A: 60

Q: What about the “Barnyardgrass plant response rating” value [8] of the same molecule?
A: 40

Q: And the “Blackgrass plant response rating (0 to 100 scale)” value [9]?
A: 90

Q: And the “Blackgrass plant response rating” value [9]?
A: 70

Q: And the “Corn plant response rating (0 to 100 scale)” value (corn (Zea mays))?
A: 40

Q: What about the “Corn plant response rating” value (corn (Zea mays)) of the same molecule?
A: 0

Q: And the “Foxtail … (0 to 100 scale)” value [10]?
A: 80

Q: What about the “Foxtail, Giant plant response rating” value [10] of the same molecule?
A: 70

Q: And the “Galium plant response rating (0 to 100 scale)” value [11]?
A: 90

Q: What about the “Galium plant response rating” value [11] of the same molecule?
A: 70

Q: And the “Kochia plant response rating (0 to 100 scale)” value (kochia (Kochia scoparia) [12])?
A: 70

Q: What about the “Kochia plant response rating” value (kochia (Kochia scoparia) [12]) of the same molecule?
A: 60

Q: And the “Pigweed plant response rating (0 to 100 scale)” value [13]?
A: 80

Q: And the “Pigweed plant response rating” value [13]?
A: 80

Q: What about the “Ragweed plant response rating (0 to 100 scale)” value [14] of the same molecule?
A: 80

Q: What about the “Ragweed plant response rating” value [14] of the same molecule?
A: 70

Q: And the “Wheat plant response rating (0 to 100 scale)” value [15]?
A: 50

Q: What about the “Wheat plant response rating” value [15] of the same molecule?
A: 30

Q: What about the “Plant response rating, Barnyardgrass (0 to 100 scale, 0 is no effect, 100 is complete control)” value [16] of the same molecule?
A: 0

Q: What about the “Plant response rating, Ducksalad (0 to 100 scale, 0 is no effect, 100 is complete control)” value [17] of the same molecule?
A: 0

Q: And the “Plant response rating, Rice (0 to 100 scale, 0 is no effect, 100 is complete control)” value (rice (Oryza sativa))?
A: 0

Q: And the “Plant response rating, Sedge, Umbrella (0 to 100 scale, 0 is no effect, 100 is complete control)” value [18]?
A: 0

Q: Which “Ryegrass, Italian plant response rating” value [1] does the source give for CON=C(c1c(O)c(C)nn(C)c1=O)c1cccc2cc(Br)ccc12 [Compound 100] here?
A: 50

Q: And the “Ryegrass … (0 to 100 scale)” value [1]?
A: 100

Q: And the “Barnyardgrass plant response rating” value [2]?
A: 50

Q: What about the “Barnyardgrass plant response rating (0 to 100 scale)” value [2] of the same molecule?
A: 80

Q: What about the “Foxtail, Giant plant response rating” value [3] of the same molecule?
A: 60

Q: And the “Foxtail … (0 to 100 scale)” value [3]?
A: 100

Q: And the “Kochia plant response rating” value (kochia (Kochia scoparia) [4])?
A: 10

Q: What about the “Kochia plant response rating (0 to 100 scale)” value (kochia (Kochia scoparia) [4]) of the same molecule?
A: 60

Q: What about the “Pigweed plant response rating” value [5] of the same molecule?
A: 90

Q: And the “Pigweed plant response rating (0 to 100 scale)” value [5]?
A: 100

Q: What about the “Ragweed plant response rating” value [6] of the same molecule?
A: 100

Q: And the “Ragweed plant response rating (0 to 100 scale)” value [6]?
A: 100

Q: And the “Ryegrass … (0 to 100 scale)” value [7]?
A: 90

Q: What about the “Ryegrass, Italian plant response rating” value [7] of the same molecule?
A: 80

Q: And the “Barnyardgrass plant response rating (0 to 100 scale)” value [8]?
A: 70

Q: And the “Barnyardgrass plant response rating” value [8]?
A: 30

Q: And the “Blackgrass plant response rating (0 to 100 scale)” value [9]?
A: 90

Q: And the “Blackgrass plant response rating” value [9]?
A: 90

Q: What about the “Corn plant response rating (0 to 100 scale)” value (corn (Zea mays)) of the same molecule?
A: 40

Q: And the “Corn plant response rating” value (corn (Zea mays))?
A: 10

Q: What about the “Foxtail … (0 to 100 scale)” value [10] of the same molecule?
A: 80

Q: What about the “Foxtail, Giant plant response rating” value [10] of the same molecule?
A: 70

Q: What about the “Galium plant response rating (0 to 100 scale)” value [11] of the same molecule?
A: 90

Q: And the “Galium plant response rating” value [11]?
A: 90

Q: What about the “Kochia plant response rating (0 to 100 scale)” value (kochia (Kochia scoparia) [12]) of the same molecule?
A: 70

Q: And the “Kochia plant response rating” value (kochia (Kochia scoparia) [12])?
A: 70

Q: And the “Pigweed plant response rating (0 to 100 scale)” value [13]?
A: 90

Q: And the “Pigweed plant response rating” value [13]?
A: 90

Q: And the “Ragweed plant response rating (0 to 100 scale)” value [14]?
A: 100

Q: What about the “Ragweed plant response rating” value [14] of the same molecule?
A: 90

Q: What about the “Wheat plant response rating (0 to 100 scale)” value [15] of the same molecule?
A: 50

Q: And the “Wheat plant response rating” value [15]?
A: 0

Q: And the “Plant response rating, Barnyardgrass (0 to 100 scale, 0 is no effect, 100 is complete control)” value [16]?
A: 0

Q: And the “Plant response rating, Ducksalad (0 to 100 scale, 0 is no effect, 100 is complete control)” value [17]?
A: 0

Q: What about the “Plant response rating, Rice (0 to 100 scale, 0 is no effect, 100 is complete control)” value (rice (Oryza sativa)) of the same molecule?
A: 0

Q: And the “Plant response rating, Sedge, Umbrella (0 to 100 scale, 0 is no effect, 100 is complete control)” value [18]?
A: 0
